Where two headings read alike, the source gives them in different places.
Columns and labels:
[1] = tested on: E. coli ATCC 25922; experiment: Antibiotic interaction assay (Wimley), 2/3 broth microdilution: MIC alone, MIC of combination, FICI; type: cell-based; conditions: for MIC: Escherichia coli; for MIC of combination (μM): antibiotic: concentration of labelled drug in combination with KL-L9P; for FICI of drug with KL-L9P / FICIKL-L9P / FICIantibiotic: labelled drug + KL-L9P; for MIC of combination (μM): antibiotic (colistin): colistin concentration in combination with labelled peptide; for MIC of peptide: peptide alone
Experimental: Synergy was evaluated by an antibiotic interaction assay (Wimley, 2015) Using the method of Wimley (BBA, 2015, v. 1848(1), pp. 8-15), synergy between the membrane-activating peptide and an antibiotic was measured by an FICI value (FIG. 17). […] Thus, to accurately examine synergy, a ⅔ dilution method which observes MIC at denser concentration intervals is advantageous over a ½ dilution method in statistical terms. […] In the same manner, the MIC of an antibiotic or repositioning drug (second line) is measured. In the third line, the two compounds are mixed after putting half amount each, and the MIC thereof is measured.
A broth microdilution technique (⅔ dilution) was used together with an MH broth. E. coli treated with an antibiotic and the peptide was incubated in a 37° C. incubator for 18 hours.
(§1) To measure the synergy between the membrane-activating peptides and the repositioning drug, a 10× compound was prepared, and then serially diluted ⅔-fold with distilled water. An MH broth (900 μl) was added to and mixed with the 10× compound (100 μl), and then 200 μL of the mixture was taken and added to a 96-well plate. E. coli cultured for one day was adjusted to 0.5 MCF using MCFarland, and diluted 10-fold, and then 10 μl of the dilution was added to each well of the plate (5×10^5 CFU/mL). After addition of the bacterial cells, plate was incubated at 37° C. for 18 hours, and then the OD value at UV-Vis (600 nm) was measured. Cell viability (%)=(OD600 of sample−OD600 of negative control)/(OD600 of positive control−OD600 of negative control)×100.

[2] = tested on: Escherichia coli (ATCC 25922); conditions: peptide alone; peptide concentration required to inhibit growth by 20% (so in the source)
Experimental: The N-terminus of the peptides were acetylated and the C-terminus was amidated. The kinked structure can rapidly reduce the alpha-helical content, thereby greatly reducing the toxicity of the peptide against host cells. In addition, because of the potential to show specificity for the Gram-negative bacterial membrane, Pro-mutants were prepared by site-directed mutagenesis. Using the prepared peptides, their MIC for the Gram-negative bacterium E. coli and the Gram-positive bacterium S. aureus and their hemolytic activity for host cells were examined (Table 1).
as §1

[3] = ATCC25922, 18 h, drug alone, <20% growth of positive control, read-out: MIC of antibiotic
[4] = labelled peptide + colistin + linezolid
[5] = peptide concentration in combination with colistin
[6] = three compounds: labelled peptide + colistin + linezolid

**Q.** What does the source list for `Oc1ccc(C=Cc2cc(O)cc(O)c2)cc1` [resveratrol]?
**A.** MIC [1, 3]: 1770 µM; MIC of combination (μM): antibiotic [1]: 246.91 µM; FICI of drug with KL-L9P [1]: 0.25; FICIKL-L9P [1]: 0.11; FICIantibiotic [1]: 0.14

**Q.** Which MIC ([1]; ATCC25922, 18 h, Tables 19-23, read-out: MIC (μM) against E. coli ATCC, 1 compound alone) does the source give for `CCC(C)(C)C(=O)O[C@H]1C[C@@H](C)C=C2C=C[C@H](C)[C@H](CC[C@@H]3C[C@@H](O)CC(=O)O3)[C@H]21` [simvastatin] here?
**A.** > 500 µM

**Q.** And the MIC [1, 3]?
**A.** > 500 µM

**Q.** And the MIC ([1]; ATCC25922, simvastatin alone, read-out: MIC of simvastatin)?
**A.** 750 µM

**Q.** And the “MIC (μM) against E. coli ATCC, combination of 3 compounds” value ([1]; KL-L9P + colistin + simvastatin, concentration of labelled component)?
**A.** 33 µM

**Q.** And the “MIC (μM) against E. coli ATCC, combination of two compounds” value ([1]; KL-L9P + simvastatin, concentration of labelled component)?
**A.** 53 µM

**Q.** And the “MIC (μM) against E. coli ATCC, combination of two compounds” value ([1]; colistin + simvastatin, concentration of labelled component)?
**A.** 71 µM

**Q.** What about the “MIC of combination (μM): antibiotic” value [1] of the same compound?
**A.** 52.47 µM

**Q.** What about the “FICI of drug with KL-L9P” value [1] of the same compound?
**A.** 0.18

**Q.** What about the FICIKL-L9P [1] of the same compound?
**A.** 0.11

**Q.** What about the FICIantibiotic [1] of the same compound?
**A.** 0.07

**Q.** How did the “synergy with KL-L9P” value [1] turn out when `CN(C)[C@@H]1C(=O)C(C(N)=O)=C(O)[C@@]2(O)C(=O)C3=C(O)c4c(O)cccc4[C@@](C)(O)[C@H]3C[C@@H]12` [tetracyclin] was run?
**A.** not synergistic

**Q.** How did the “MIC [μM] Against E. coli” value [2] turn out when KLAKLAKKPLKLAK [KLA-L9P] was run?
**A.** > 200 µM

**Q.** KLLKLAKKPLKLLK [KL-L6AL9P] was tested. Which “MIC [μM] Against E. coli” value [2] did it give?
**A.** 89 µM

**Q.** Which “MIC [μM] Against E. coli” value [2] does the source give for KLLKLLCKLCKLLK [7, 10 kink] here?
**A.** 1.1 µM

**Q.** What about the “MIC of combination (μM): antibiotic (colistin)” value [1] of the same compound?
**A.** 0.081 µM

**Q.** What about the “FICI of peptide with colistin” value ([1]; labelled peptide + colistin) of the same compound?
**A.** 0.89

**Q.** And the FICIPeptide ([1]; labelled peptide + colistin)?
**A.** 0.58

**Q.** And the “FICIcolistin / FICIantibiotic” value ([1]; labelled peptide + colistin)?
**A.** 0.31

**Q.** And the “FICI of peptide with colistin and linezolid” value [1, 4]?
**A.** 1.1

**Q.** And the FICIPeptide [1, 4]?
**A.** 0.37

**Q.** And the FICIcolistin [1, 4]?
**A.** 0.33

**Q.** And the FICIlinezolid [1, 4]?
**A.** 0.37

**Q.** And the “MIC of peptide” value [1]?
**A.** 1.1 µM

**Q.** What about the “MIC of combination (μM): peptide” value [1, 5] of the same compound?
**A.** 0.63 µM

**Q.** And the “MIC of combination (μM): colistin” value [1, 6]?
**A.** 0.081 µM

**Q.** And the “MIC of combination (μM): linezolid” value [1, 6]?
**A.** 22 µM

**Q.** What about the “MIC of combination (μM): peptide” value [1, 6] of the same compound?
**A.** 0.44 µM

**Q.** How did the “MIC [μM] Against E. coli” value [2] turn out when KLLKLLKCLLKCLK [8, 12 kink] was run?
**A.** 1.1 µM

**Q.** And the “MIC of combination (μM): antibiotic (colistin)” value [1]?
**A.** 0.065 µM

**Q.** And the “FICI of peptide with colistin” value ([1]; labelled peptide + colistin)?
**A.** 0.86

**Q.** What about the FICIPeptide ([1]; labelled peptide + colistin) of the same compound?
**A.** 0.56

**Q.** And the “FICIcolistin / FICIantibiotic” value ([1]; labelled peptide + colistin)?
**A.** 0.30

**Q.** What about the “FICI of peptide with colistin and linezolid” value [1, 4] of the same compound?
**A.** 1.1

**Q.** What about the FICIPeptide [1, 4] of the same compound?
**A.** 0.42

**Q.** And the FICIcolistin [1, 4]?
**A.** 0.29

**Q.** And the FICIlinezolid [1, 4]?
**A.** 0.37

**Q.** What about the “MIC of peptide” value [1] of the same compound?
**A.** 1.1 µM

**Q.** And the “MIC of combination (μM): peptide” value [1, 5]?
**A.** 0.59 µM

**Q.** What about the “MIC of combination (μM): colistin” value [1, 6] of the same compound?
**A.** 0.065 µM

**Q.** What about the “MIC of combination (μM): linezolid” value [1, 6] of the same compound?
**A.** 22 µM

**Q.** What about the “MIC of combination (μM): peptide” value [1, 6] of the same compound?
**A.** 0.44 µM

**Q.** For KLLKLLKKELKLLK [KL L9E], which “MIC [μM] Against E. coli” value [2] is on record?
**A.** 5 µM

**Q.** Which “MIC [μM] Against E. coli” value [2] does the source give for KLLKLLKKGLKLLK [KL L9G] here?
**A.** 1.25 µM

**Q.** KLLKLLKKNLKLLK [KL L9N] was tested. Which “MIC [μM] Against E. coli” value [2] did it give?
**A.** 2.5 µM

**Q.** With KLLKLLKKQLKLLK [KL L9Q] as the compound, how does the “MIC [μM] Against E. coli” value [2] read?
**A.** 1.25 µM

**Q.** Which “MIC [μM] Against E. coli” value [2] does the source give for KLLKLLKKSLKLLK [KL L9S] here?
**A.** 1.25 µM

**Q.** With Mtx- KLLKLLKKPLKLLK [Mtx-KL-L9P] as the compound, how does the “MIC [μM] Against E. coli” value [2] read?
**A.** 5.0 µM

**Q.** Mtx- KLLKLPKKLLKLLK [Mtx-KL-L6P] was tested. Which “MIC [μM] Against E. coli” value [2] did it give?
**A.** 5.0 µM

**Q.** With Mtx- LKKLLKLPKKLLKL [Mtx-LK-L8P] as the compound, how does the “MIC [μM] Against E. coli” value [2] read?
**A.** 5.0 µM
